Assay results taken from US8906852B2 (MethylGene Inc., priority 2010, dated 2014).

Assays:
VEGFR/KDR = biological target: T1, VEGFR/KDR (Homo sapiens, UniProt P35968); assay: VEGFR/KDR kinase inhibition, DELFIA assay; format: biochemical; settings: ATP 0.6 uM (2x Km), enzyme 5 nM
T1 construct: made in house; host or cells: Sf9 cells (Spodoptera frugiperda), baculovirus
Outline: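 Enzyme (5 nM) pre-incubated 4 min on ice with inhibitor and Mg-ATP (0.6 uM, 2× Km), then reacted 10-30 min at 30° C on immobilized poly(Glu4,Tyr). EDTA-quenched phosphotyrosine detected with Europium-labeled antibody by time-resolved fluorescence; IC50 from concentration series.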

CNV progression = assay: In vivo choroidal neovascularization (CNV) model, laser-induced, intravitreal injection; set-up: species or system Male Brown-Norway rats; settings: 240 h, rat
Text: This test measures the capacity of compounds to inhibit CNV progression. CNV is the main cause of severe vision loss in patients suffering from age-related macular degeneration (AMD).
Male Brown-Norway rats (Japan Clea Co., Ltd.) were used in these studies.
Rats were anesthetized by intraperitoneal injection of pentobarbital, and the right pupil was dilated with 0.5% tropicamide and 0.5% phenylephrine hydrochloride. The right eye received 6 laser burns between retinal vessels using a slit lamp delivery system of Green laser Photocoagulator (Nidex Inc., Japan), and microscope slide glass with Healon™ (AMO Inc) used as a contact lens. The laser power was 100 or 200 mW for 0.1 second and spot diameter was 100 μm. At the time of laser burn, bubble production was observed, which is an indication of rupture of Bruch's membrane which is important for CNV generation.
Rats were divided into the groups based on their body weight using SAS software (SAS institute Japan, R8.1) after laser irradiation (Day 0). After animals were anesthetized, and the right pupil dilated (as above mentioned), the right eye of the animal received the compound or vehicle by an injection (10 μL/eye) at doses of 10 or 3 nmol/eye on Day 3. The compounds were dissolved or suspended in CBS, PBS, or other adequate vehicles before injection.
On Day 10, the animals were anesthetized with ether, and high molecular weight fluorescein isothiocyanate (FITC)-dextran (SIGMA, 2×10^6 MW) was injected via a tail vein (20 mg/rat). About 30 min after FITC-dextran injection, animals were euthanized by ether or carbon dioxide, and the eyes were removed and fixed with 10% formaline neutral buffer solution. After over 1 hour of fixation, RPE-choroid-sclera flat mounts were obtained by removing cornea, lens and retina from the eyeballs. The flat mounts were mounted in 50% glycerol on a microscope slide, and the portion burned by laser was photographed using a fluorescence microscope (Nikon Corporation, excitation filter:465-495 nm, absorption filter:515-555 nm). The CNV area was obtained by measurement of hyper-fluorescence area observed on the photograph using Scion image.
The average CNV area of 6 burns was used as an individual value of CNV area, and the average CNV area of compound treated group was compared with that of the vehicle-treated group.

T1 sequence (P35968 806-1356): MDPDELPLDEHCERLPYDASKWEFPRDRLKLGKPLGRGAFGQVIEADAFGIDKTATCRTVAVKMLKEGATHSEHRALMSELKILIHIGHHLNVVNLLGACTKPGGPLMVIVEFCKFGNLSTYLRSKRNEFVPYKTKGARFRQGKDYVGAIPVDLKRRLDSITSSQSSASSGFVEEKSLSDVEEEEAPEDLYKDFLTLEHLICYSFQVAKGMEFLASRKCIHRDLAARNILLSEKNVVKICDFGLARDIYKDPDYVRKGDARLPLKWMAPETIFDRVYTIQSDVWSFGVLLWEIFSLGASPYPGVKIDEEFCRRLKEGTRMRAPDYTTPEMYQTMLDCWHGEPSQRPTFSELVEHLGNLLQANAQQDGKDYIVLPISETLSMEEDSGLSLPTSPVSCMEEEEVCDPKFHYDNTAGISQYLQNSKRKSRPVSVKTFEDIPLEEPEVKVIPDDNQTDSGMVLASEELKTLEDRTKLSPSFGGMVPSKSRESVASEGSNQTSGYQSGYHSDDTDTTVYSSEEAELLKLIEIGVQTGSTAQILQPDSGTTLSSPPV

IC50 (VEGFR/KDR) [nM]	SMILES	inhibition in vivo at 3 nmol/eye (CNV progression; 3 nmol/eye injected on Day 3, CNV area on Day 10, vs vehicle) [%]	inhibition in vivo at 10 nmol/eye (CNV progression; 10 nmol/eye injected on Day 3, CNV area on Day 10, vs vehicle) [%]
< 50	CN1CCC(CN2CCN(C(=O)c3ccc(-c4cc5nccc(Oc6ccc(NC(=O)NC7CC7)cc6F)c5s4)nc3)CC2)CC1 [Compound 232, 1-cyclopropyl-3-(3-fluoro-4-(2-(5-(4-((1-methylpiperidin-4-yl)methyl)piperazine-1-carbonyl)pyridin-2-yl)thieno[3,2-b]pyridin-7-yloxyl)phenyl)urea]	40 to 60	–
< 50	COCCNCCc1ccc(-c2cc3nccc(Oc4ccc(NC(=O)NC5CC5)cc4F)c3s2)nc1 [Compound 288, 1-cyclopropyl-3-(3-fluoro-4-(2-(5-(2-(2-methoxyethylamino)ethyl)pyridin-2-yl)thieno[3,2-b]pyridin-7-yloxy)phenyl)urea]	–	40 to 60
